ChEMBL document CHEMBL1201862, “PubChem BioAssay data set” (2004)
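The compound was tested at five concentrations on cells cultured in 96-well plates, with a 48-hour exposure period. Abbreviation: GI50, concentration required for 50% inhibition of growth.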 Activity calls are given as the source filed them. Rule as the data show it: active = GI50 up to about 1.1 µM and inactive = higher.

Key:
Test in all cases: DTP human tumour cell line panel, 48 h
SK-MEL-2 = test system: SK-MEL-2
MDA-MB-435 = test system: MDA-MB-435
UO-31 = test system: UO-31
OVCAR-3 = test system: OVCAR-3
OVCAR-5 = test system: OVCAR-5
MDA-N = test system: MDA-N
SNB-19 = test system: SNB-19
SK-MEL-5 = test system: SK-MEL-5
T47D = test system: T47D
RPMI-8226 = test system: RPMI-8226
HCT-116 = test system: HCT-116
786-0 = test system: 786-0
RXF 393 = test system: RXF 393
HCC 2998 = test system: HCC 2998
MOLT-4 = test system: MOLT-4
CAKI-1 = test system: CAKI-1
NCI-H522 = test system: NCI-H522
SK-MEL-28 = test system: SK-MEL-28
HT-29 = test system: HT-29
HL-60 = test system: HL-60
BT-549 = test system: BT-549
CCRF-CEM = test system: CCRF-CEM
A549 = test system: A549
NCI/ADR-RES = test system: NCI/ADR-RES
NCI-H460 = test system: NCI-H460
LOX IMVI = test system: LOX IMVI
PC-3 = test system: PC-3
UACC-62 = test system: UACC-62
SN12C = test system: SN12C
SW-620 = test system: SW-620
COLO 205 = test system: COLO 205
A498 = test system: A498
U-251 = test system: U-251
NCI-H23 = test system: NCI-H23
SF-295 = test system: SF-295
Hs-578T = test system: Hs-578T
ACHN = test system: ACHN
Malme-3M = test system: Malme-3M
SNB-75 = test system: SNB-75
MDA-MB-231 = test system: MDA-MB-231
UACC-257 = test system: UACC-257
SK-OV-3 = test system: SK-OV-3
SF-268 = test system: SF-268
OVCAR-4 = test system: OVCAR-4
M14 = test system: M14
K562 = test system: K562
HOP-62 = test system: HOP-62
SF-539 = test system: SF-539
NCI-H226 = test system: NCI-H226
HCT-15 = test system: HCT-15
OVCAR-8 = test system: OVCAR-8
KM12 = test system: KM12
EKVX = test system: EKVX
MCF7 = test system: MCF7
IGROV-1 = test system: IGROV-1
DU-145 = test system: DU-145
TK-10 = test system: TK-10
HOP-92 = test system: HOP-92
SR = test system: SR

Compound: NC(=O)Nc1n[nH]c(-c2ccccc2)n1
- GI50 (SK-MEL-2): > 100 µM (inactive)
- GI50 (MDA-MB-435): > 100 µM (inactive)
- GI50 (UO-31): > 100 µM (inactive)
- GI50 (OVCAR-3): > 100 µM (inactive)
- GI50 (OVCAR-5): > 100 µM (inactive)
- GI50 (MDA-N): > 100 µM (inactive)
- GI50 (SNB-19): > 100 µM (inactive)
- GI50 (SK-MEL-5): > 100 µM (inactive)
- GI50 (T47D): > 100 µM (inactive)
- GI50 (RPMI-8226): > 100 µM (inactive)
- GI50 (HCT-116): > 100 µM (inactive)
- GI50 (786-0): > 100 µM (inactive)
- GI50 (RXF 393): > 100 µM (inactive)
- GI50 (HCC 2998): > 100 µM (inactive)
- GI50 (MOLT-4): > 100 µM (inactive)
- GI50 (CAKI-1): > 100 µM (inactive)
- GI50 (NCI-H522): > 100 µM (inactive)
- GI50 (SK-MEL-28): > 100 µM (inactive)
- GI50 (HT-29): > 100 µM (inactive)
- GI50 (HL-60): > 100 µM (inactive)
- GI50 (BT-549): > 100 µM (inactive)
- GI50 (CCRF-CEM): > 100 µM (inactive)
- GI50 (A549): > 100 µM (inactive)
- GI50 (NCI/ADR-RES): > 100 µM (inactive)
- GI50 (NCI-H460): > 100 µM (inactive)
- GI50 (LOX IMVI): > 100 µM (inactive)
- GI50 (PC-3): > 100 µM (inactive)
- GI50 (UACC-62): > 100 µM (inactive)
- GI50 (SN12C): > 100 µM (inactive)
- GI50 (SW-620): > 100 µM (inactive)
- GI50 (COLO 205): > 100 µM (inactive)
- GI50 (A498): > 100 µM (inactive)
- GI50 (U-251): > 100 µM (inactive)
- GI50 (NCI-H23): > 100 µM (inactive)
- GI50 (SF-295): 0.706 µM (active)
- GI50 (Hs-578T): > 100 µM (inactive)
- GI50 (ACHN): > 100 µM (inactive)
- GI50 (Malme-3M): > 100 µM (inactive)
- GI50 (SNB-75): > 100 µM (inactive)
- GI50 (MDA-MB-231): > 100 µM (inactive)
- GI50 (UACC-257): > 100 µM (inactive)
- GI50 (SK-OV-3): 1.79 µM (inactive)
- GI50 (SF-268): > 100 µM (inactive)
- GI50 (OVCAR-4): > 100 µM (inactive)
- GI50 (M14): > 100 µM (inactive)
- GI50 (K562): > 100 µM (inactive)
- GI50 (HOP-62): 54.1 µM (inactive)
- GI50 (SF-539): > 100 µM (inactive)
- GI50 (NCI-H226): > 100 µM (inactive)
- GI50 (HCT-15): > 100 µM
- GI50 (OVCAR-8): > 100 µM (inactive)
- GI50 (KM12): > 100 µM (inactive)
- GI50 (EKVX): > 100 µM (inactive)
- GI50 (MCF7): > 100 µM (inactive)
- GI50 (IGROV-1): > 100 µM (inactive)
- GI50 (DU-145): > 100 µM (inactive)
- GI50 (TK-10): > 100 µM (inactive)

Compound: CC(=O)C(=N\Nc1ccc(Cl)cc1)/C(C)=N/c1ccc(C)cc1
- GI50 (SK-MEL-2): 18.4 µM (inactive)
- GI50 (HOP-92): 16.6 µM (inactive)
- GI50 (MDA-MB-435): 30.4 µM (inactive)
- GI50 (UO-31): 30.1 µM (inactive)
- GI50 (OVCAR-3): 24.6 µM (inactive)
- GI50 (OVCAR-5): 34 µM (inactive)
- GI50 (MDA-N): 31.9 µM (inactive)
- GI50 (SNB-19): 63.1 µM (inactive)
- GI50 (SK-MEL-5): 19 µM (inactive)
- GI50 (T47D): 38.5 µM (inactive)
- GI50 (RPMI-8226): 18.7 µM (inactive)
- GI50 (HCT-116): 36.8 µM (inactive)
- GI50 (786-0): 37.2 µM (inactive)
- GI50 (RXF 393): 23 µM (inactive)
- GI50 (MOLT-4): 16.7 µM (inactive)
- GI50 (CAKI-1): 49.3 µM (inactive)
- GI50 (NCI-H522): 19.7 µM (inactive)
- GI50 (SK-MEL-28): 48.8 µM (inactive)
- GI50 (HT-29): 22.5 µM (inactive)
- GI50 (BT-549): 51.4 µM (inactive)
- GI50 (SR): > 100 µM (inactive)
- GI50 (CCRF-CEM): 11.2 µM (inactive)
- GI50 (A549): 29.3 µM (inactive)
- GI50 (NCI/ADR-RES): 25.6 µM (inactive)
- GI50 (LOX IMVI): 45 µM (inactive)
- GI50 (PC-3): 28.6 µM (inactive)
- GI50 (UACC-62): 49.1 µM (inactive)
- GI50 (SN12C): 45.7 µM (inactive)
- GI50 (SW-620): 41.6 µM (inactive)
- GI50 (COLO 205): 21.3 µM (inactive)
- GI50 (A498): 11.9 µM (inactive)
- GI50 (U-251): 31.6 µM (inactive)
- GI50 (NCI-H23): 38.1 µM (inactive)
- GI50 (SF-295): 32.4 µM (inactive)
- GI50 (Hs-578T): 44.4 µM (inactive)
- GI50 (ACHN): 21.9 µM (inactive)
- GI50 (Malme-3M): 20.7 µM (inactive)
- GI50 (SNB-75): 44 µM (inactive)
- GI50 (MDA-MB-231): 37.5 µM (inactive)
- GI50 (UACC-257): 53.2 µM (inactive)
- GI50 (SK-OV-3): 46 µM (inactive)
- GI50 (SF-268): 35.6 µM (inactive)
- GI50 (OVCAR-4): > 100 µM (inactive)
- GI50 (M14): 22.1 µM (inactive)
- GI50 (K562): 33 µM (inactive)
- GI50 (HOP-62): > 10 µM (inactive)
- GI50 (NCI-H226): 29.6 µM (inactive)
- GI50 (HCT-15): 45.6 µM
- GI50 (OVCAR-8): 35.6 µM (inactive)
- GI50 (KM12): 27.1 µM (inactive)
- GI50 (EKVX): 21.3 µM (inactive)
- GI50 (IGROV-1): 32.7 µM (inactive)
- GI50 (DU-145): 30.8 µM (inactive)
- GI50 (TK-10): 33.5 µM (inactive)
